Source: patent US12208079B2, “Enantiomers of A2-73, analogues, and sigma agonist activity” (Anavex Life Sciences Corp., priority 2015, dated 2025)

Experiments:
σ1 (h) = σ1 (h) (Homo sapiens, UniProt Q99720); assay: σ1 (h) receptor binding assay, [3H](+)pentazocine; settings: hydrochloride; for % of Control Specific Binding, 1st / % of Control Specific Binding, 2nd / % of Control Specific Binding, Mean: 1.0E−06 M; for % of Control Specific Binding, 1st: 1st individual value; for % of Control Specific Binding, 2nd: 2nd individual value; for % Inhibition of Control Specific Binding: test concentration 1.0E−06 M
Text: (§1) The specific ligand binding to the receptors is defined as the difference between the total binding and the nonspecific binding determined in the presence of an excess of unlabelled ligand.
(§2) The results are expressed as a percent of control specific binding and as a percent inhibition of control specific binding obtained in the presence of the test compounds. Individual and mean values are presented in the results section.
(§3) The IC50 values (concentration causing a half-maximal inhibition of control specific binding) and Hill coefficients (nH) were determined by non-linear regression analysis of the competition curves using Hill equation curve fitting. The inhibition constants (Ki) were calculated from the Cheng Prusoff equation (Ki=IC50/(1+(L/KD)), where L=concentration of radioligand in the assay, and KD=affinity of the radioligand for the receptor).

σ2 = target: T1, σ2 (Rattus norvegicus, UniProt Q5U3Y7); assay: σ2 receptor binding assay, [3H]DTG (+ 300 nM (+)pentazocine); settings: for % of Control Specific Binding, 1st / % of Control Specific Binding, 2nd / % of Control Specific Binding, Mean: 1.0E−06 M; for % of Control Specific Binding, 1st: 1st individual value; for % of Control Specific Binding, 2nd: 2nd individual value; for % Inhibition of Control Specific Binding: test concentration 1.0E−06 M
T1 sequence (Q5U3Y7 1-176): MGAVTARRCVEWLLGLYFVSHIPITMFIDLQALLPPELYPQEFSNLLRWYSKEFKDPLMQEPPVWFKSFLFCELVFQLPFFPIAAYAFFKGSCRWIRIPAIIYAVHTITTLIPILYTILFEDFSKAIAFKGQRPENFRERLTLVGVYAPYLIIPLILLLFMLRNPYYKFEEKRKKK
Text: as §1, §2, §3

muscarinic M1 receptors [1] = assay: Isolated organ bioassay, test for agonist activity, field-stimulated rabbit vas deferens; assay type: biochemical; settings: for Effect on twitch contraction amplitude (in words): untreated field-stimulated tissues
Method: (§4) Prostatic segments of rabbit vas deferens were suspended in 20-ml organ baths containing an oxygenated (95% O2 and 5% CO2) and pre-warmed (30° C.) physiological salt solution of the following composition (in mM): NaCl 118.0, KCl 4.7, MgSO4 0.6, CaCl2) 2.5, KH2PO4 1.2, NaHCO325 and glucose 11.0 (pH 7.4).
(§5) Yohimbine (1 μM) and naloxone (1 μM) were also present throughout the experiments to block the α2-adrenergic and opioid receptors, respectively.
(§6) The tissues were connected to force transducers for isometric tension recordings. They were stretched to a resting tension of 1 g then allowed to equilibrate for 60 min during which time they were washed repeatedly and the tension readjusted. Thereafter, they were stimulated electrically with square wave pulses (submaximal intensity, 1 msec duration, 0.1 Hz) delivered by a constant current stimulator.
The tissues were exposed to a submaximal concentration of the reference agonist McN-A-343 (1 μM) to verify responsiveness and to obtain a control response. Following washings and recovery of the initial twitch contractions, the tissues were exposed to the test compounds or the same agonist which were left in contact with the tissues until a stable response was obtained or for a maximum of 15 min.
(§7) The parameter measured was the maximum change in the amplitude of the electrically-evoked contractions induced by the compounds.
(§8) The results are expressed as a percent of the control response to McN-A-343 (mean values).

muscarinic M1 receptors [2] = assay: Isolated organ bioassay, test for antagonist activity, field-stimulated rabbit vas deferens; assay type: biochemical; settings: for Response to McN-A-343 (1.0E−06M) in the presence of the compound, percent of the control response: mean, n=2; for Behaviour at the M1 receptors (conclusion): rabbit vas deferens
Method: as §4, §5, §6
The tissues were exposed to a submaximal concentration of the reference agonist McN-A-343 (1 μM) to obtain a control response.
If it occurred, a recovery of the twitch contraction amplitude by the test compounds indicated an antagonist activity at the M1 receptors.
as §7, §8

[3] = Treatment of Alzheimer's patients (Examples 1 and 5); assay type: in vivo
Method: A person diagnosed with early stage Alzheimer's dementia is treated with 10 mg of ⊖Anevex2-73 substantially free of Anavex2-73 ? , once per week for three years.
A patient is diagnosed with AD and treated with 10 mg of ⊖Anevex2-73 substantially free of Anavex2-73 ? daily for 3 yrs.

[4] = Neuroprotection against oxidative (anoxic) stress, balloon ascent (Example 2); assay type: in vivo; settings: 10 mgs oral daily for 5 days before ascent to 6,000 meters without oxygen assist
Text: A person balloonist, anticipating anoxic stress, is orally administered 10 mgs of oral ⊖Anevex2-73 substantially free of Anavex2-73 ? daily for 5 days preceding a balloon ascent.

[5] = in vivo, po
[6] = Neuroprotection in stroke patient (Example 4); assay type: in vivo; settings: person, ischemic event of middle cerebral artery, 1 mg i.v.
Method: A person enters the emergency room and is diagnosed with an ischemic event involving the middle cerebral artery, with symptomatology onset being less than 1 hr. Immediately, the patient is administered an i.v. supplemented with 1 mg of ⊖Anevex2-73 substantially free of Anavex2-73 ? while blood supply to the restricted area is restored.

σ1 (h), sequence (Q99720 whole entry): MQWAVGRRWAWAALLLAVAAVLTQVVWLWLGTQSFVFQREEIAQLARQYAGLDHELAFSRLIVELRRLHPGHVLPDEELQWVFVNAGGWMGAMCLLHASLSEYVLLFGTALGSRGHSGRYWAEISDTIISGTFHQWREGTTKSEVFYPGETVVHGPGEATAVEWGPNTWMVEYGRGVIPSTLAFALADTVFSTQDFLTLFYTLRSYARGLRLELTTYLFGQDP

| SMILES | % of Control Specific Binding, 1st (σ1 (h)) [%] | % of Control Specific Binding, 2nd (σ1 (h)) [%] | % of Control Specific Binding, Mean (σ1 (h)) [%] | % Inhibition of Control Specific Binding (σ1 (h)) [%] | % of Control Specific Binding, 1st (σ2; hydrochloride) [%] | % of Control Specific Binding, 2nd (σ2; hydrochloride) [%] | % of Control Specific Binding, Mean (σ2; hydrochloride) [%] | % Inhibition of Control Specific Binding (σ2; hydrochloride) [%] | Effect on twitch contraction amplitude (in words) (muscarinic M1 receptors [1]) | Behaviour at the M1 receptors (conclusion) (muscarinic M1 receptors [2]) | further results |
| --- | --- | --- | --- | --- | --- | --- | --- | --- | --- | --- | --- |
| CN(C)CC1CCOC1(c1ccccc1)c1ccccc1.Cl (single isomer, unassigned; (+)) [(+) A2-73, tetrahydro-N,N-dimethyl-2,2-diphenyl-3-furanmethanamine hydrochloride] | 81.5 | 81.1 | 81.3 | 19 | 88.9 | 83.2 | 86.1 | 14 | – | – | – |
| C[N+](C)(C)CC#CCOC(=O)Nc1cccc(Cl)c1.[Cl-] [McN-A-343, reference compound] | – | – | – | – | – | – | – | – | concentration-dependent decrease in the twitch contraction amplitude | – | Response to the compound + pirenzepine, percent of the control response to McN-A-343 (muscarinic M1 receptors [1]; + pirenzepine (1.0E−07M), mean, n=2): −5%; Response to the compound (decrease in twitch contraction amplitude), percent of the control response to McN-A-343 (muscarinic M1 receptors [1]; compound 1.0E−06M, mean, n=2): 99%; Response to the compound (decrease in twitch contraction amplitude), percent of the control response to McN-A-343 (muscarinic M1 receptors [1]; compound 1.0E−07M, mean, n=2): 29%; Response to the compound (decrease in twitch contraction amplitude), percent of the control response to McN-A-343 (muscarinic M1 receptors [1]; compound 3.0E−07M, mean, n=2): 67% |
| CN(C)CC1COC(c2ccccc2)(c2ccccc2)C1.Cl (single isomer, unassigned; (+)) [(+) A1-41, tetrahydro-N,N-dimethyl-5,5-diphenyl-3-furanmethanamine hydrochloride] | 35.0 | 32.9 | 34.0 | 66 | 60.0 | 56.8 | 58.4 | – | did not decrease the twitch contraction amplitude but caused a slight to moderate increase | behave as antagonists at the M1 receptors | % Inhibition of Control Specific Binding (σ2; listed as (+) A1-14, hydrochloride): 42%; Response to the compound (decrease in twitch contraction amplitude), percent of the control response to McN-A-343 (muscarinic M1 receptors [1]; compound 1.0E−05M, mean, n=2, listed as (+) AE 14, hydrochloride): −31%; Response to the compound (decrease in twitch contraction amplitude), percent of the control response to McN-A-343 (muscarinic M1 receptors [1]; compound 1.0E−06M, mean, n=2, listed as (+) AE 14, hydrochloride): −16%; Response to McN-A-343 (1.0E−06M) in the presence of the compound, percent of the control response (muscarinic M1 receptors [2]; compound 1.0E−05M, listed as (+) AE 14, hydrochloride): 1%; Response to McN-A-343 (1.0E−06M) in the presence of the compound, percent of the control response (muscarinic M1 receptors [2]; compound 1.0E−06M, listed as (+) AE 14, hydrochloride): 13% |
| CN(C)CC1COC(c2ccccc2)(c2ccccc2)C1.Cl (single isomer, unassigned; (-)) [(−) A1-41, tetrahydro-N,N-dimethyl-5,5-diphenyl-3-furanmethanamine hydrochloride] | 35.7 | 33.3 | 34.5 | 65 | 41.0 | 40.3 | 40.7 | – | did not decrease the twitch contraction amplitude but caused a slight to moderate increase | behave as antagonists at the M1 receptors | % Inhibition of Control Specific Binding (σ2; listed as (−) A1-14, hydrochloride): 59%; Response to the compound (decrease in twitch contraction amplitude), percent of the control response to McN-A-343 (muscarinic M1 receptors [1]; compound 1.0E−05M, mean, n=2, listed as (−) AE 14, hydrochloride): −8%; Response to the compound (decrease in twitch contraction amplitude), percent of the control response to McN-A-343 (muscarinic M1 receptors [1]; compound 1.0E−06M, mean, n=2, listed as (−) AE 14, hydrochloride): −5%; Response to McN-A-343 (1.0E−06M) in the presence of the compound, percent of the control response (muscarinic M1 receptors [2]; compound 1.0E−05M, listed as (−) AE 14, hydrochloride): 9%; Response to McN-A-343 (1.0E−06M) in the presence of the compound, percent of the control response (muscarinic M1 receptors [2]; compound 1.0E−06M, listed as (−) AE 14, hydrochloride): 20% |
| CN(C)CC1CCOC1(c1ccccc1)c1ccccc1.Cl (single isomer, unassigned; (-)) [(−) A2-73, tetrahydro-N,N-dimethyl-2,2-diphenyl-3-furanmethanamine hydrochloride] | 50.7 | 50.0 | 50.4 | 50 | 126.1 | 100.6 | 113.4 | −13 | did not decrease the twitch contraction amplitude but caused a slight to moderate increase | behave as antagonists at the M1 receptors | Response to the compound (decrease in twitch contraction amplitude), percent of the control response to McN-A-343 (muscarinic M1 receptors [1]; compound 1.0E−05M, mean, n=2): −20%; Response to the compound (decrease in twitch contraction amplitude), percent of the control response to McN-A-343 (muscarinic M1 receptors [1]; compound 5.0E−05M, mean, n=2): −33%; Response to McN-A-343 (1.0E−06M) in the presence of the compound, percent of the control response (muscarinic M1 receptors [2]; compound 1.0E−05M): 16%; Response to McN-A-343 (1.0E−06M) in the presence of the compound, percent of the control response (muscarinic M1 receptors [2]; compound 5.0E-05M): −1%; Cognitive score ([3]; person with AD, 10 mg daily for 3 yrs): stabilizes and then increases slowly and regularly; Brain content in amyloid peptide oligomers on autopsy ([3]; person, 10 mg once per week for three years): very low content in amyloid peptide oligomers; Mental function tested quarterly ([3]; person, early stage Alzheimer's dementia, 10 mg once per week for three years): does not decrease over the period; Anoxic damage [4]: suffers no anoxic damage; Damage after neurotoxin exposure [5]: suffers no damage; CT/MRI imaging of the affected region [6]: no signs of lesioning in the affected region; Daily testing of cognitive and motor systems [6]: no deficits in physical or mental capacities |
